The values below come from patent publication US7276337B2, “Compositions and methods for visual ribonuclease detection assays” (Integrated DNA Technologies, Inc., priority 2000, dated 2007).

One data set has as its target T1, RNase A (Bos taurus, UniProt P61823).
T1 sequence (P61823 27-150): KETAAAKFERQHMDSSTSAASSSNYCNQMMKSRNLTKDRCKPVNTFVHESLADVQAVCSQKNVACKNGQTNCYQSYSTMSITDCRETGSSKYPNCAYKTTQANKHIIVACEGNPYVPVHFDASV
The data set can be described thus: Fluorometric detection nuclease assay, RNase A. Type of data set: biochemical, mammalian. The settings on record: Substrate 50 nM. The procedure: Nuclease assays were conducted using the method of the invention. SEQ ID NO:2 and SEQ ID NO:3 oligonucleotides were individually mixed in 1× Assay Buffer at a concentration of 50 nM (150 pmoles oligonucleotide in 3 mls volume). […] Assays were set up directly in cuvettes as follows:
Assay Mixes were incubated at 37° C. for 1 hour. Fluorescence emission spectra were measured using a PTI fluorometer with 490 nm excitation. Substrate SEQ ID NO:2 (having chimeric RNA-DNA composition) reacted with both DNase I (undesired) and RNase A (desired).
(§1) Nuclease assays were conducted using the method of the invention. The Substrate (SEQ ID NO:30) was mixed in 1× Assay Buffer at a concentration of 50 nM (150 pmoles oligonucleotide in 3 mls volume). Test nucleases were added to respective Assay Mixes, including 1 ul of RNase A (1 ug), 1 ul of RNase 1 (100 units), or 1 ul of RNase T1 (1000 units). […] Assays were set up directly in cuvettes as follows:
(§2) Assay Mixes were incubated at 37° C. for 1 hour. Assays were transferred to cuvettes and fluorescence emission at 520 nm was measured using a PTI fluorometer with 490 nm excitation. Substrate SEQ ID NO:30, a preferred Substrate of the invention, reacted with (i.e., detected) all three RNase enzymes, verifying that Substrate compositions of the invention are sensitive to a variety of RNase enzymes.
Substrate SEQ ID NO:30 was mixed in 1× Assay Buffer at a concentration of 50 nM (150 pmoles oligonucleotide in 3 mls volume). RNase A was added at final concentrations of 10 ng/ml, 2 ng/ml, 1 ng/ml, and 0.4 ng/ml. […] Assay mixes were incubated at 37° C. in a cuvette directly in a PTI fluorometer. Fluorescence emission at 520 nm with 490 nm excitation was measured over time. At high nuclease concentrations, the reaction goes rapidly to completion. At lower nuclease concentrations, the reaction rate decreases but with longer incubation times an easily detectable signal is generated. Substrate concentration is fixed and input enzyme (i.e., the test sample) varies. Since the background is stable (monitored in the control reaction), use of extended incubation periods will increase the sensitivity of the assay.
Assays were conducted using the method of the invention with fluorometric detection. Substrate SEQ ID NO:30 was mixed in 1× Assay Buffer at a concentration of 50 nM (50 pmoles ODN in 1.0 ml volume) in RNase-free disposable cuvettes. […] Dilutions of stock RNase A, RNase 1, and RNase T1 were made in water. Undiluted and diluted nuclease (1 ul) was added to respective 1.0 ml Assay Mixes resulting in final dilution factors of 10^−3, 10^−4, 10^−5, 10^−6, 10^−7, 10^−8, and 10^−9. Assays were incubated at 37° C. for 1 hour and examined for fluorescence emission at 520 nm using 490 nm excitation in a PTI fluorometer. Final enzyme concentration reported notes the lowest concentration tested that was reproducibly positive with a signal:noise ratio of at least 2:1.

The target in another data set is T2, Ribonuclease A (Bos taurus, UniProt P61823).
T2 sequence (P61823 27-150): T1 sequence (P61823 27-150)
The data set can be described thus: Visual detection ribonuclease assay, cleavage of Substrate ODN by RNase A. It is filed as biochemical, mammalian. On the set-up: key to Sensitivity of Substrate ODN to Ribonuclease A, relative signal intensity: +++ = maximum intensity; ++ = moderate intensity; + = faint but above background; − = negative (identical to background). The settings on record: Substrate 500 nM; for Sensitivity of Substrate ODN to Ribonuclease A, relative signal intensity: visual inspection, UV excitation, 37° C. 60 minutes. The procedure, abridged: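 Fluorogenic substrate oligonucleotides (500 nM for visual, 50 nM for fluorometric read) cut by serially diluted RNase A, 10 min at room temperature or 60 min at 37° C. Cleavage judged by fluorescence under UV excitation, scored +++ to − by relative intensity.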

In a further data set the target is RNase 1 (Escherichia coli, UniProt P21338). The data set can be described thus: Fluorometric detection nuclease assay, RNase 1. It is filed as biochemical, E. coli. The settings on record: Substrate 50 nM, 37° C. 1 hour. The procedure:
as §1, §2
Assays were conducted using the method of the invention with fluorometric detection. Substrate SEQ ID NO:30 was mixed in 1× Assay Buffer at a concentration of 50 nM (50 pmoles ODN in 1.0 ml volume) in RNase-free disposable cuvettes. […] Dilutions of stock RNase A, RNase 1, and RNase T1 were made in water. […] Assays were incubated at 37° C. for 1 hour and examined for fluorescence emission at 520 nm using 490 nm excitation in a PTI fluorometer. […]

Sequence of RNase 1 (P21338 24-268): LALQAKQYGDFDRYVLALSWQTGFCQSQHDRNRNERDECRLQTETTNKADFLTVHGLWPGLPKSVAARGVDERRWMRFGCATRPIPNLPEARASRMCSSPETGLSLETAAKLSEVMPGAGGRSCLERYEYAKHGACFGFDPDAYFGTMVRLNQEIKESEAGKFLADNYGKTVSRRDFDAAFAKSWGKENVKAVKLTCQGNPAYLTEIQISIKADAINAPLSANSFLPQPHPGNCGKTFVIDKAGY

“5′ Fluorescein-AauggcA-QSY-7 3′ (NAAUGGCAN; 5' fluorescein and 3' QSY-7 labels, nucleotide chemistry not given here) [SEQ ID NO:30]”: the “Reactivity with RNase A (fluorometer)” value in the data set with RNase A (RNase A 0.33 ug/ml, 37° C. 1 hour, 490 nm excitation) is given as “reacted”. Moreover, the “Assay background (hydrolysis of the Substrate) over time” value in the data set with RNase A (control reaction without ribonuclease, 1× Assay Buffer, 37° C.) is on record as “stable”. Also, in the data set with RNase A (fluorometric detection, 37° C. 1 hour, dilution factor 10^−8), the “Enzyme Concentration, lowest tested reproducibly positive with signal:noise at least 2:1, RNase A” value worked out at 10 pg/mL. Also, the “Sensitivity of Substrate ODN to Ribonuclease A, relative signal intensity” value is “++” with Ribonuclease A (RNase A 10 pg/ml), “+++” with Ribonuclease A (RNase A 100 pg/ml) and “+++” with Ribonuclease A (RNase A 1 ng/ml). Further, the “Fluorescence emission by visual inspection in the presence of RNase” value with Ribonuclease A (RNase A 1.0 ug/ml, room temperature 10 minutes, UV light source) is “visibly bright”. The “Detection of RNase A activity by visual examination” value with Ribonuclease A (final dilution factors of stock 10^−2 to 10^−7, room temperature 10 minutes) is reported as “clearly detectable”. Besides, the “Fluorescence emission by visual inspection in the absence of RNase (control reaction)” value with Ribonuclease A (no nuclease, room temperature 10 minutes, UV light source) was “visually transparent (dark)”. Further, the “Reactivity with RNase 1 (fluorometer)” value with RNase 1 (RNase 1 33 units/ml, emission 520 nm, 490 nm excitation) is “reacted”. Moreover, the “Enzyme Concentration, lowest tested reproducibly positive with signal:noise at least 2:1, RNase 1” value with RNase 1 (fluorometric detection, dilution factor 10^−7) is given as 0.00001 units/ml.
